Holding throughout (experiment): substrate saturation curve, initial velocities
In data set [1] the test system is T1, CapGH43_12.
T1 construct: recombinant in E. coli BL21, pET28a, N-terminal 6xHis-tag cleaved with trypsin; gene of cluster CC102
The format is biochemical, Bacteroidaceae bacterium MAG57. Particulars: pH 6.5, 35 °C, 70 mM McIlvaine buffer. The text has this: substrate saturation curve, initial velocities on CapGH43_12

Data set [2] deals with T2, CapGH97.
T2 construct: recombinant in E. coli BL21, pET28a, N-terminal 6xHis-tag cleaved with trypsin; gene of cluster CC102
The format is biochemical, Bacteroidaceae bacterium MAG57. Particulars: pH 7.0, 35 °C, 70 mM McIlvaine buffer, 5 mM CaCl2. The text has this:
substrate saturation curve, initial velocities on CapGH97

For data set [3], the system named is O=[N+]([O-])c1ccc(O[C@@H]2O[C@H](CO)[C@H](O)[C@H](O)[C@H]2O)cc1. It is filed as biochemical, Bacteroides xylanisolvens. Particulars: pH 7.5, 45 °C. The source says: substrate saturation curve, initial velocities on BXY_26070 (CBK67650)
Data set [4] deals with T3, CapGH173.
T3 construct: recombinant in E. coli BL21, pET28a, N-terminal 6xHis-tag cleaved with trypsin
The format is biochemical, Bacteroidales bacterium MAG42. Particulars: pH 7.5, 45 °C, 70 mM McIlvaine buffer. The text has this: substrate saturation curve, initial velocities on CapGH173

With `O=[N+]([O-])c1ccc(O[C@@H]2O[C@@H](CO)[C@H](O)[C@H]2O)cc1` [pNP-α-L-AraF, p-nitrophenyl-α-L-arabinofuranoside], the Km in data set [1] was 2740 ± 290 µM. On to `O=[N+]([O-])c1ccc(O[C@H]2O[C@H](CO)[C@H](O)[C@H](O)[C@H]2O)cc1` [pNP-α-D-Gal, p-nitrophenyl-α-D-galactopyranoside], for which, in data set [2], the Km stood at 7700 ± 610 µM. For “BXY_26070 (CBK67650) (Bacteroides xylanisolvens XB1A)”, in data set [3], the Km is 1190 ± 350 µM, the kcat was 29.9 ± 1.95 s⁻¹ and the kcat/Km was 25100 M⁻¹ s⁻¹.

Regarding `O=[N+]([O-])c1ccc(O[C@@H]2O[C@H](CO)[C@H](O)[C@H](O)[C@H]2O)cc1` [pNP-β-D-Gal, p-nitrophenyl-β-D-galactopyranoside], the Km in data set [4] was determined as 570 ± 50 µM.

As usually defined, the Km is the substrate concentration at which the rate is half of its maximum. A word on the kcat: it is the maximal rate divided by the concentration of active sites. A word on the kcat/Km: it is the turnover number divided by the Michaelis constant.

The record behind these values is PMC8810776, “Gut microbiome of the largest living rodent harbors unprecedented enzymatic systems to degrade plant polysaccharides” (Nature Communications, 2022).
